Reference: patent publication US20230117324A1, “OXAZINE MONOACYLGLYCEROL LIPASE (MAGL) INHIBITORS” (Hoffmann-La Roche Inc., priority 2018, published 2023)

biological target: T1, MAGL (Homo sapiens, UniProt Q99685); test: MAGL inhibition, 2-AG assay (hydrolysis of 2-arachidonoylglycerol, arachidonic acid by mass spectrometry); format: biochemical; conditions: 2-AG assay (footnote [b])
T1 sequence (Q99685 1-303): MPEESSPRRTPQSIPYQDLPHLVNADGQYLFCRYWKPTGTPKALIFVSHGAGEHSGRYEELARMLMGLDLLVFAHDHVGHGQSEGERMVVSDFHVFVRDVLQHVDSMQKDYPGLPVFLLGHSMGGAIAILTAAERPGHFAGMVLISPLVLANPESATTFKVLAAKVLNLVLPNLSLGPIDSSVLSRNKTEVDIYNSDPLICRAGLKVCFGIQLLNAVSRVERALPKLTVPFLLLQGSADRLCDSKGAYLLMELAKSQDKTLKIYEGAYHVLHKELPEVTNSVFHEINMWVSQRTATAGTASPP
Experimental: Alternatively, compounds were profiled for MAGL inhibitory activity by determining the enzymatic activity by following the hydrolysis of the natural substrate 2-arachidonoylglycerol (2-AG) resulting in arachidonic acid, which can be followed by mass spectrometry. This assay is hereinafter abbreviated “2-AG assay”.
The 2-AG assay was carried out in 384 well assay plates (PP, Greiner Cat #784201) in a total volume of 20 μL. Compound dilutions were made in 100% DMSO (VWR Chemicals 23500.297) in a polypropylene plate in 3-fold dilution steps to give a final concentration range in the assay from 12.5 μM to […]. 0.25 μL compound dilutions (100% DMSO) were added to 9 μL MAGL in assay buffer (50 mM TRIS (GIBCO, 15567-027), 1 mM EDTA (Fluka, 03690-100 mL), 0.01% (v/v) Tween. After shaking, the plate was incubated for 15 min at RT. To start the reaction, 10 μL 2-arachidonoylglycerol in assay buffer was added. The final concentrations in the assay was […] and 8 μM 2-arachidonoylglyerol. After shaking and 30 min incubation at RT, the reaction was quenched by the addition of 40 μL of ACN containing 4 μM of d8-arachidonic acid. The amount of arachidonic acid was traced by an online SPE system (Agilent Rapidfire) coupled to a triple quadrupole mass spectrometer (Agilent 6460). A C18 SPE cartridge (G9205A) was used in an ACN/water liquid setup. The mass spectrometer was operated in negative electrospray mode following the mass transitions 303.1→259.1 for arachidonic acid and 311.1→267.0 for d8-arachidonic acid. The activity of the compounds was calculated based on the ratio of intensities [arachidonic acid/d8-arachidonic acid].

Compound	IC50 [nM]
CC1CN(C(=O)N2CC[C@@H]3OCC(=O)N[C@@H]3C2)CCC1c1ccc(C(C)(F)F)cn1 (single isomer, unassigned) [Example 43, (4aR,8aS)-6-((3R or 3S)-4-(5-(1,1-Difluoroethyl)pyridin-2-yl)-3-methylpiperidine-1-carbonyl)hexahydro-2H-pyrido[4,3-b][1,4]oxazin-3(4H)-one]	156
CC1CN(C(=O)N2CC[C@@H]3OCC(=O)N[C@@H]3C2)CCC1c1ccc(C(C)(F)F)cn1 (single isomer, unassigned) [Example 44, (4aR,8aS)-6-((3S or 3R)-4-(5-(1,1-Difluoroethyl)pyridin-2-yl)-3-methylpiperidine-1-carbonyl)hexahydro-2H-pyrido[4,3-b][1,4]oxazin-3(4H)-one]	381
CC1CN(C(=O)N2CC[C@@H]3OCC(=O)N[C@@H]3C2)CC[C@@H]1c1ccc(C(C)(F)F)cn1 (single isomer, unassigned) [Example 45, (4aR,8aS)-6-((4R or 4S)-(5-(1,1-Difluoroethyl)pyridin-2-yl)-3-methylpiperidine-1-carbonyl)hexahydro-2H-pyrido[4,3-b][1,4]oxazin-3(4H)-one]	3300
CC(c1ccc(C(F)(F)F)cc1)C1CCN(C(=O)N2CC[C@@H]3OCC(=O)N[C@@H]3C2)CC1 (single isomer, unassigned) [Example 46, (4aR,8aS)-6-(4-((R or S)-1-(4-(Trifluoromethyl)phenyl)ethyl)piperidine-1-carbonyl)hexahydro-2H-pyrido[4,3-b][1,4]oxazin-3(4H)-one]	3
CC(c1ccc(C(F)(F)F)cc1)C1CCN(C(=O)N2CC[C@@H]3OCC(=O)N[C@@H]3C2)CC1 (single isomer, unassigned) [Example 47, (4aR,8aS)-6-(4-((S or R)-1-(4-(Trifluoromethyl)phenyl)ethyl)piperidine-1-carbonyl)hexahydro-2H-pyrido[4,3-b][1,4]oxazin-3(4H)-one]	514
O=C1CO[C@H]2CCN(C(=O)N3CCC(C(OCC(F)(F)F)c4ccc(F)cc4)CC3)C[C@H]2N1 (single isomer, unassigned) [Example 57, (4aR,8aS)-6-(4-((R or S)-(4-Fluorophenyl)(2,2,2-trifluoroethoxy)methyl)piperidine-1-carbonyl)hexahydro-2H-pyrido[4,3-b][1,4]oxazin-3(4H)-one]	29
O=C1CO[C@H]2CCN(C(=O)N3CCC(C(OCC(F)(F)F)c4ccc(F)cc4)CC3)C[C@H]2N1 (single isomer, unassigned) [Example 58, (4aR,8aS)-6-(4-((S or R)-(4-Fluorophenyl)(2,2,2-trifluoroethoxy)methyl)piperidine-1-carbonyl)hexahydro-2H-pyrido[4,3-b][1,4]oxazin-3(4H)-one]	7
Cc1noc(CC(c2ccc(F)cc2)C2CCN(C(=O)N3CC[C@@H]4OCC(=O)N[C@@H]4C3)CC2)n1 (single isomer, unassigned) [Example 59, (4aR,8aS)-6-(4-((R or S)-1-(4-Fluorophenyl)-2-(3-methyl-1,2,4-oxadiazol-5-yl)ethyl)piperidine-1-carbonyl)hexahydro-2H-pyrido[4,3-b][1,4]oxazin-3(4H)-one]	60
Cc1noc(CC(c2ccc(F)cc2)C2CCN(C(=O)N3CC[C@@H]4OCC(=O)N[C@@H]4C3)CC2)n1 (single isomer, unassigned) [Example 60, (4aR,8aS)-6-(4-((S or R)-1-(4-Fluorophenyl)-2-(3-methyl-1,2,4-oxadiazol-5-yl)ethyl)piperidine-1-carbonyl)hexahydro-2H-pyrido[4,3-b][1,4]oxazin-3(4H)-one]	67
COc1cccc(C(c2ccc(F)cc2)C2CCN(C(=O)N3CC[C@@H]4OCC(=O)N[C@@H]4C3)CC2)c1 (single isomer, unassigned) [Example 62, (4aR,8aS)-6-[4-[(S or R)-(4-Fluorophenyl)-(3-methoxyphenyl)methyl]piperidine-1-carbonyl]-4,4a,5,7,8,8a-hexahydropyrido[4,3-b][1,4]oxazin-3-one]	0.4
COc1cccc(C(c2ccc(F)cc2)C2CCN(C(=O)N3CC[C@@H]4OCC(=O)N[C@@H]4C3)CC2)c1 (single isomer, unassigned) [Example 63, (4aR,8aS)-6-(4-((R or S)-(4-Fluorophenyl)(3-methoxyphenyl)methyl)piperidine-1-carbonyl)hexahydro-2H-pyrido[4,3-b][1,4]oxazin-3(4H)-one]	0.3
COc1cccc(C(c2ccccc2)C2CCN(C(=O)N3CC[C@@H]4OCC(=O)N[C@@H]4C3)CC2)c1 (single isomer, unassigned) [Example 64, (4aR,8aS)-6-(4-((S or R)-(3-Methoxyphenyl)(phenyl)methyl)piperidine-1-carbonyl)hexahydro-2H-pyrido[4,3-b][1,4]oxazin-3(4H)-one]	0.2
COc1cccc(C(c2ccccc2)C2CCN(C(=O)N3CC[C@@H]4OCC(=O)N[C@@H]4C3)CC2)c1 (single isomer, unassigned) [Example 65, (4aR,8aS)-6-(4-((R or S)-(3-Methoxyphenyl)(phenyl)methyl)piperidine-1-carbonyl)hexahydro-2H-pyrido[4,3-b][1,4]oxazin-3(4H)-one]	0.2
O=C1CO[C@H]2CCN(C(=O)N3CCC(C(c4ccccc4)c4cccc(OCCF)c4)CC3)C[C@H]2N1 (single isomer, unassigned) [Example 66, (4aR,8aS)-6-(4-((S or R)-(3-(2-Fluoroethoxy)phenyl)(phenyl)methyl)piperidine-1-carbonyl)hexahydro-2H-pyrido[4,3-b][1,4]oxazin-3(4H)-one]	0.4
O=C1CO[C@H]2CCN(C(=O)N3CCC(C(c4ccccc4)c4ccc(F)cc4)CC3)C[C@H]2N1 (single isomer, unassigned) [Example 68, (4aR,8aS)-6-(4-((S or R)-(4-Fluorophenyl)(phenyl)methyl)piperidine-1-carbonyl)hexahydro-2H-pyrido[4,3-b][1,4]oxazin-3(4H)-one]	0.2
Cc1ccc(C(c2ccc(F)cc2)C2CCN(C(=O)N3CC[C@@H]4OCC(=O)N[C@@H]4C3)CC2)cc1 (single isomer, unassigned) [Example 69, (4aR,8aS)-6-[4-[(S or R)-(4-Fluorophenyl)-(4-methylphenyl)methyl]piperidine-1-carbonyl]-4,4a,5,7,8,8a-hexahydropyrido[4,3-b][1,4]oxazin-3-one]	0.1
O=C1CO[C@H]2CCN(C(=O)N3CCC(C(c4ccccc4)c4ccc(OCCF)cc4)CC3)C[C@H]2N1 (single isomer, unassigned) [Example 70, (4aR,8aS)-6-[4-[(R or S)-[4-(2-Fluoroethoxy)phenyl]-phenylmethyl]piperidine-1-carbonyl]-4,4a,5,7,8,8a-hexahydropyrido[4,3-b][1,4]oxazin-3-one]	4
COc1ccc(C(c2ccc(F)cc2)C2CCN(C(=O)N3CC[C@@H]4OCC(=O)N[C@@H]4C3)CC2)cc1 (single isomer, unassigned) [Example 71, (4aR,8aS)-6-(4-((S or R)-(4-Fluorophenyl)(4-methoxyphenyl)methyl)piperidine-1-carbonyl)hexahydro-2H-pyrido[4,3-b][1,4]oxazin-3(4H)-one]	0.2
